Results: US20200268005A1, “PELLETED RUMINANT FEED ENRICHED WITH RUMEN-AVAILABLE INGREDIENTS” (BASF SE, priority 2014, published 2020)

Test: CLA analysis immediately after the processing step (pelleting / extrusion)
Assay type: physicochemical
Procedure: Preparation of the meal: Corn and extracted soybean meal were weighed in together, ground and mixed in a horizontal mixer. Lutalin or Lutrell were added and mixed in. The mixing time amounted to 15 minutes. These two mixtures were divided in each case. 80 kg were pelleted and 30 kg were extruded.
Pelleting press: Manufacturer Simon Heesen, horizontal die, 3.3×35 mm, nominal capacity 300 kg/hr. Extruder: Werner & Pfleiderer 37, die 2×0 3.9 mm, nominal capacity up to 50 kg/hr. Pelleting: Pelleting temperatures of 67-68.5° C. were reached. Extrusion: An extrusion temperature of 85° C. was reached, approximately 14% of water having been added. A residual moisture of 10 to 12% has been found in the end product.

- activity loss on extrusion (extrusion temperature 85° C.): approx. 40%
Substance: conjugated linoleic acid [CLA]
- survival of the pelleting process (pelleting 67-68.5° C., in words): survived the pelleting process very well
